Measurements as given in paper PMC11988454, “Discovery of synthetic small molecules targeting the central regulator of Salmonella pathogenicity” (Science Advances, 2025).
Where “and” joins values, the source holds several entries; their conditions need not be identical. Identical values can stand only once.

What was measured:
[1] = tested on: T3SS-1 (SipA secretion); assay: SipA-NLuc secretion assay (NanoLuc luciferase); format: cell-based, S. Typhimurium; details: Salmonella enterica, read-out: IC50 SipA secretion
Protocol: (A) NanoLuc Luciferase assay to screen T3SS-1 inhibitors in 384-well plates. Compounds were screened at a final concentration of 100 μM (N = 3 replicates). Cultures with strains sipA-NLuc and ΔinvA, sipA-NLuc with 1% (v/v) DMSO were used as positive and negative controls, respectively. […] 100% relative SipA secretion corresponds to the luminescence intensity of the WT strain grown in the presence of 1% (v/v) DMSO. The relative SipA secretion of the ∆invA mutant was considered as the bottom (N = 2 technical replicates within N = 3 biological replicates).
For compound screening, 50 μl of overnight cultures of Salmonella with an approximate optical density at 600 nm (OD600) of 2 were diluted in fresh LB medium to an OD600 of 0.05 and added to 384-well plates (Nunc MaxiSorp, white) containing 5 nmol of screening compound per well, for a final compound concentration of 100 μM. The plates were incubated for 5 hours at 37°C with shaking at 180 rpm, upon which the bacteria were removed. The plates were washed with phosphate-buffered saline (PBS) [137 mM NaCl, 2.7 mM KCl, 10 mM Na2HPO4, and 1.8 mM KH2PO4 (pH 7.4)] using a Tecan HydroSpeed plate washer. Residual PBS after washing was removed, and 50 μl of NanoLuc working solution (NanoGlo, Promega) was added to the wells. Luminescence was then measured using a Tecan Sparc Multimode reader. […]

[2] = tested on: SPI-encoded genes; format: cell-based, S. Typhimurium
Protocol: Salmonella was grown for 5 hours at 37°C in LB medium in the presence of 100 μM C26 or 1% (v/v) DMSO as a control. After growth, bacteria were harvested by centrifugation, and total RNA was isolated using the Qiagen RNeasy mini kit according to the manufacturer’s protocol. RNA-seq was performed on a HiSeq2500 with a 2 x 125–base pair paired-end read protocol. The Illumina Casava software was used to demultiplex the sequenced reads providing individual raw fastq sample files. Raw fastq files were prefiltered using the chastity filter to remove reads that contain a “Y” flag. FastQC (https://www.bioinformatics.babraham.ac.uk/projects/fastqc/, version v0.11.4) was used to determine the quality of the resulting fastq files. Subsequently, an adapter trimming/removal step was conducted with Cutadapt (https://pypi.python.org/pypi/cutadapt/, version 1.8.3). […] TopHat2 (https://ccb.jhu.edu/software/tophat/index.shtml, version v2.0.12) was used as aligner to map the remaining quality controlled reads to the Salmonella genome. Read counting to features (e.g., genes or exons) in the genome was performed with HTSeq-count (https://htseq.readthedocs.io/en/master/htseqcount.html, version 0.6.0.). Counting was performed using “union” mode on the feature “gene.” The stranded option was also set to “–stranded=no” to indicate to count features on both strands. Furthermore, the -r parameter from HTSeq was set to “pos” as this is the default of the output of TopHat’s “accepted_hits.bam” mapping file. For differential expression analysis, the raw read count table resulting from HTSeq counting is used and fed into the R package DESeq2 (version 1.10.1). Graphs were also produced in the R language (R version 3.2.1) mainly using the R package ggplot2 (version 2.2.0). Reports were produced using the R package rmarkdown (version 1.3).

[3] = tested on: macrophages RAW 264.7; assay: In vitro toxicity, CellTox Green Cytotoxicity Assay, macrophages; format: cell-based; details: RAW 264.7, 6 hours exposure
Protocol: The screening of in vitro toxicity of the compound analogs was performed with the CellTox Green Cytotoxicity Assay (Promega, USA) according to the manufacturer’s instructions. Cells (10^4 cells per well) were seeded into a 96-well plate and incubated for 24 hours at 37°C, 5% (v/v) CO2. Cells were then treated with the compound at different concentrations or 1% (v/v) DMSO in Dulbecco’s modified Eagle’s medium (DMEM) without phenol red at the desired exposure time. Fluorescence intensity was measured with a TECAN Spark microplate reader. […] page 4: […] 0 10000 20000 30000 40000 50000 Compound concentration (µM) Cytotoxicity (RFU) Fig. S3. […] Cytotoxicity Assay. Fluorescence was measured as a readout for cytotoxicity at 485Ex/520Em. N = 3 biological replicates. (1 picture or pasted object on this page, not shown here)

[4] = target: T1, HilD (Salmonella typhimurium, UniProt P0CL08); assay: EMSA, binding to hilA promoter, HilD; format: biochemical, S. Typhimurium
T1 construct: His6-SUMO (N, cleaved yes); made in house; host or cells: E. coli C41(DE3)
Protocol: EMSAs were performed similarly to as described previously ([39]) using a 62–base pair double-stranded (dsDNA) fragment of the hilA promoter, encompassing the A1 binding site ([82]). dsDNA fragments were generated by melting the complementary primers PhilA_A1_f / PhilA_A1_r (table S10) together in TE buffer [10 mM Tris (pH 8.0) and 1 mM EDTA] at 95°C for 10 min before slowly cooling to r.t. The forward primer was modified with a 5′-Cy5 fluorescent dye for detection. The protein (600 nM) was incubated with 50 nM labeled DNA in EMSA buffer [20 mM Tris (pH 8.0), 100 mM KCl, 100 μM EDTA, and 3% glycerol]. C26 was diluted first in DMSO and subsequently 1:100 into the protein-DNA sample. Samples were incubated at 37°C for 15 min, supplemented with diluted DNA loading dye, and separated on a 1.5-mm-thick, 6% (w/v) TBE polyacrylamide gel at 6°C at a constant voltage of 100 V. Gels were imaged using a ChemiDocMP imaging system (Bio-Rad).

[5] = target: T1, HilD; assay: SEC-MALS of HilD; set-up: species or system S. Typhimurium
Protocol: SEC-MALS experiments were performed using a Superdex 75 Increase 10/300 GL column (Cytiva) coupled to a miniDAWN Tristar Laser photometer (Wyatt) and a RI-2031 differential refractometer (JASCO). HilD (100 μM) was incubated with 1% (v/v) of either DMSO or C26 (10 mM dissolved in DMSO) for 20 min at r.t. Fifty microliters of HilD samples was loaded onto the SEC column, equilibrated with SEC buffer, and separated using a flow rate of 0.5 ml min^−1. Data analysis was carried out with the ASTRA v7.3.0.18 software (Wyatt).

[6] = C26 100 μM vs DMSO, single replicates (Fig 2E)
[7] = C26 100 μM, size of the down-regulation given without sign

T1 sequence (P0CL08 whole entry): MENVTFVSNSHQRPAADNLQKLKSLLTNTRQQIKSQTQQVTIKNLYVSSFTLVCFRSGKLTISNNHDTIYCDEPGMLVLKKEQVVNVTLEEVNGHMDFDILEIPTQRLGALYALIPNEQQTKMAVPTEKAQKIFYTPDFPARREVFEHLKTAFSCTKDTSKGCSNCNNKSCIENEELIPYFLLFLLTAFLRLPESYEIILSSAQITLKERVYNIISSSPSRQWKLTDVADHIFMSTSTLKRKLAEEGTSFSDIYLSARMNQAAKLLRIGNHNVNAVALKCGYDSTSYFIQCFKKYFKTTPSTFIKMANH

With `CN(CC(=O)NCc1ccc2c(c1)OCO2)Cc1ccc(Br)s1` [C26, N-(benzo[d][1,3]dioxol-5-ylmethyl)-2-{[(5-bromothiophen-2-yl)methyl](methyl)amino}acetamide] the IC50 [1] was 29.2 µM, the “Log2 Fold change STM0972” value [2, 6] was -1.019 and -1.567 and -1.468 and the “Log2 Fold change STM05625” value [2, 6] was -1.06 and -1.782 and -1.1981. The “Log2 Fold change avrA” value [2, 6] was -1.134 and -2.023 and -1.399, the “Log2 Fold change hilA” value [2, 6] was -3.571 and -4.424 and -3.961 and the “Log2 Fold change hilC” value [2, 6] was -2.8 and -3.816 and -2.688. For the same compound, the “Log2 Fold change hilD” value [2, 6] was -1.794 and -2.09 and -1.995, the “Log2 Fold change iacP” value [2, 6] was -2.394 and -3.567 and -2.412 and the “Log2 Fold change iagB” value [2, 6] was -3.642 and -4.006 and -3.534. The “Log2 Fold change invA” value [2, 6] was -3.221 and -3.81 and -3.166, the “Log2 Fold change invB” value [2, 6] was -2.867 and -3.637 and -3.183 and the “Log2 Fold change invC” value [2, 6] was -2.536 and -3.183 and -2.8784. The “Log2 Fold change invE” value [2, 6] was -3.292 and -4.06 and -3.2144, the “Log2 Fold change invF” value [2, 6] was -3.621 and -4.389 and -3.592 and the “Log2 Fold change invG” value [2, 6] was -3.834 and -4.335 and -3.589. For the same compound, the “Log2 Fold change invH” value [2, 6] was -3.135 and -3.596 and -3.2198, the “Log2 Fold change invI” value [2, 6] was -3.283 and -3.556 and -3.358 and the “Log2 Fold change orgA” value [2, 6] was -1.913 and -2.484 and -2.0655. The “Log2 Fold change orgB” value [2, 6] was -1.03 and -1.516 and -1.313, the “Log2 Fold change orgC” value [2, 6] was -0.8446 and -1.317 and -1.218 and the “Log2 Fold change pagC” value [2, 6] was -0.9557 and -1.642 and -1.303. For the same compound, the “Log2 Fold change pipB” value [2, 6] was -1.346 and -1.626 and -1.791, the “Log2 Fold change prgH” value [2, 6] was -2.242 and -3.146 and -2.589 and the “Log2 Fold change prgI” value [2, 6] was -2.528 and -3.17 and -2.85. For the same compound, the “Log2 Fold change prgJ” value [2, 6] was -2.351 and -3.201 and -2.717, the “Log2 Fold change prgK” value [2, 6] was -2.159 and -2.912 and -2.508 and the “Log2 Fold change rtsA” value [2, 6] was -3.522 and -4.691 and -3.546. The “Log2 Fold change sicA” value [2, 6] was -2.525 and -3.5667 and -2.5609, the “Log2 Fold change sicP” value [2, 6] was -1.008 and -1.8772 and -1.275 and the “Log2 Fold change sifB” value [2, 6] was -1.447 and -2.07 and -1.848. The “Log2 Fold change sipA” value [2, 6] was -2.154 and -3.4073 and -2.1103, the “Log2 Fold change sipB” value [2, 6] was -2.364 and -3.5554 and -2.316 and the “Log2 Fold change sipC” value [2, 6] was -2.344 and -3.615 and -2.313. The “Log2 Fold change sipD” value [2, 6] was -2.421 and -3.506 and -2.2134, the “Log2 Fold change sopB” value [2, 6] was -1.308 and -2.976 and -1.42 and the “Log2 Fold change sopD” value [2, 6] was -1.407 and -0.6715 and -1.948. For the same compound, the “Log2 Fold change sopE2” value [2, 6] was -1.5 and -2.647 and -1.472, the “Log2 Fold change spaN” value [2, 6] was -2.873 and -3.527 and -3.123 and the “Log2 Fold change spaO” value [2, 6] was -2.648 and -3.446 and -2.941. The “Log2 Fold change spaP” value [2, 6] was -2.823 and -3.907 and -2.993, the “Log2 Fold change spaQ” value [2, 6] was -3 and -2.087 and -2.907 and the “Log2 Fold change spaR” value [2, 6] was -1.963 and -4.022 and -1.926. The “Log2 Fold change spaS” value [2, 6] was -2.051 and -2.854 and -2.155, the “Log2 Fold change sprB” value [2, 6] was -2.031 and -3.538 and -1.986 and the “Log2 Fold change ssaG” value [2, 6] was -1.637 and -2.322 and -2.8413. For the same compound, the “log2 fold change expression RtsA” value [2, 7] was 3.82, the “log2 fold change expression hilA” value [2, 7] was 3.94 and the “log2 fold change expression hilC” value [2, 7] was 3.02. The “log2 fold change expression hilD” value [2, 7] was 1.95, the toxicity in macrophages [3] was “No toxicity was observed” and the “DNA binding activity of HilD (hilA promoter)” value [4] was “dose-dependent inhibition of the DNA binding activity”. The “Molecular Mass of HilD, Measured” value ([5]; HilD + C26 100 μM, theoretical dimer 70.4) was 69.8 kDa and the “oligomerization state of HilD” value ([5]; equimolar C26 (100 μM)) was “no effect on the oligomerization state”.
